# Measured values as given in patent US10736922B2, “High telomerase activity bone marrow mesenchymal stem cells, methods of producing the same and pharmaceuticals and treatment methods based thereon” (UNIVERSITY OF SOUTHERN CALIFORNIA, priority 2010, dated 2020).
# Legend:
# iNOS = molecular target: T1, iNOS (Mus musculus, UniProt P29477); assay: Western blot of iNOS expression; format: cell-based; details: BMMSCs and tBMMSCs, L-NMMA 1 mM or 1400W 0.2 mM, 3 days
# T1 construct: endogenous in cells; host or cells: primary BMMSCs and tBMMSCs
# T1 sequence (P29477 1-1144): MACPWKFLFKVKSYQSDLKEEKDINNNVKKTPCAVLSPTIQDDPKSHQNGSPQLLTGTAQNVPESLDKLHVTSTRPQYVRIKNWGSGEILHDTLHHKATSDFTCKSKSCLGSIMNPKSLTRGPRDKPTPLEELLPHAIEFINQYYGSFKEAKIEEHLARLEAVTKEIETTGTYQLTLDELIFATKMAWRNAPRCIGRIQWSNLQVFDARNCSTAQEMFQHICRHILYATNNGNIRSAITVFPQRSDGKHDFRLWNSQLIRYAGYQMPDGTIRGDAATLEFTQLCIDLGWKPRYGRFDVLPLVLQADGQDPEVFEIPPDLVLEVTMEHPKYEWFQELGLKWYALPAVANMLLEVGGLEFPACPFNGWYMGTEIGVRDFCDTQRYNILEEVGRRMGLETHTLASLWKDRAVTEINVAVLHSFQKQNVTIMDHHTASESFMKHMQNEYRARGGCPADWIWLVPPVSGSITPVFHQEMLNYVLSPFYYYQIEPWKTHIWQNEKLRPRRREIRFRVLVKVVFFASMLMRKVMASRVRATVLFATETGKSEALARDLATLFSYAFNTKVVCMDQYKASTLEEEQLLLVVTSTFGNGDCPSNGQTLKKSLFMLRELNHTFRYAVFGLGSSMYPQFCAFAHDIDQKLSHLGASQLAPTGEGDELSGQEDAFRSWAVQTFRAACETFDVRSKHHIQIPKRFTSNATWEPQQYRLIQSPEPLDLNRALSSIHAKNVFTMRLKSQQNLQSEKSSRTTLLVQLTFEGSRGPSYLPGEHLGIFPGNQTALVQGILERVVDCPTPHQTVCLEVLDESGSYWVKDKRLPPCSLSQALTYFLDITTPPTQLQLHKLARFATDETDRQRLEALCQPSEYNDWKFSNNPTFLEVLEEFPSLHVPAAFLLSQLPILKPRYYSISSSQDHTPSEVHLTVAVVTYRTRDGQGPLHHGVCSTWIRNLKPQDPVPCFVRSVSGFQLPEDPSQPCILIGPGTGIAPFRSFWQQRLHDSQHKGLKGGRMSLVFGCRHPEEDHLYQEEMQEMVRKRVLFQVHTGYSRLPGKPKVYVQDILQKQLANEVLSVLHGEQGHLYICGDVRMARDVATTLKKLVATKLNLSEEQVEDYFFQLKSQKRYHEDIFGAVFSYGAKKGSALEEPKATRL
# Protocol: (§1) Western blotting analysis. […] of protein were used and SDS-PAGE and western blotting were performed according to standard procedures. β-actin on the same membrane served as the loading control.
# (§2) Inhibitor treatment. tBMMSCs and BMMSCs were treated with 1 mM L-NMMA (Cayman Chemical) or 0.2 mM 1400 W (Cayman Chemical) to inhibit total NOS or iNOS, respectively. Aspirin 50 μg/ml (TAT) and telomerase inhibitor III (1 μM; EMD Chemicals) were used to activate and suppress telomerase activity in cultured BMMSCs, respectively. CHIRON 99021 (1 or 10 μM; Chiron Corporation) and Dickkopf 1 (DKK1, 10 ng/ml, R&D Systems) were used as an activator and inhibitor to regulate β catenin levels in BMMSCs.
# NO production in BMMSCs = assay: Measurement of nitric oxide production in BMMSC culture supernatant; format: cell-based, mouse
# Protocol: as §2
# Measurement of nitric oxide production. BMMSCs (0.2×10^6/well) were cultured on 24-well plates with or without cytokines (IFNγ, 25 ng/ml; IL-1β, 5 ng/ml, R&D Systems) and chemicals (L-NMMA, 1 mM; 1400W, 0.2 mM; aspirin, 50 μg/ml; Telomerase inhibitor III, 1 μM; CHIRON 99021, 1 or 10 μM; DKK1, 10 ng/ml) at indicated concentration and days. The same chemical concentration was also used in combination treatment such as DKK and aspirin or Telomerase inhibitor and CHIRON99021. The supernatant from each culture was collected and measured nitric oxide concentration using Total Nitric Oxide and Nitrate/Nitrite Parameter Assay kit (R&D Systems) according to manufacturer's instruction.
# activated SP cells [1] = assay: Cell survival assay, Transwell co-culture with activated splenocytes (cell counting kit-8); format: cell-based, mouse; details: for tBMMSC / BMMSC effect on cell viability of activated SP cells: L-NMMA 1 mM or 1400W 0.2 mM in co-culture
# Protocol: (§3) Cell apoptosis and cell survival assay. Transwell system (Corning) was used for co-culture experiments. 0.2×10^6 of tBMMSCs or BMMSCs were seeded on each lower chamber. In the upper chambers, activated splenocytes (1×10^6/chamber), which were pre-stimulated with plate-bounded anti CD3ε antibody (5 μg/ml) and soluble anti CD28 antibody (2 μg/ml) for 3 days, were loaded. Both chambers were filled with a complete medium containing Dulbecco's Modified Eagle Medium (DMEM, Lonza) with 10% heat-inactivated FBS, 50 μM 2-mercaptoethanol, 10 mM HEPES, 1 mM sodium pyruvate (Sigma), 1% non-essential amino acid (Cambrex), 2 mM L-glutamine, 100 U/ml penicillin and […] streptomycin. To measure the splenocyte viability, cell counting kit-8 (Dojindo Molecular Technoloies) were used. For apoptosis of splenocyte analysis, Annexin V-PE apoptosis detection kit I (BD Bioscience) were used and analyzed on FACS^Calibur (BD Bioscience).
# activated SP cells [2] = assay: Cell apoptosis assay, Transwell co-culture with activated splenocytes (Annexin V/7AAD); format: cell-based, mouse; details: for number of early and late apoptotic SP cells in tBMMSC and regular BMMSC groups: L-NMMA 1 mM or 1400W 0.2 mM in co-culture
# Protocol: as §3
# CD4^+CD25^+Foxp3^+ Tregs = assay: In vitro CD4+CD25+Foxp3+ Tregs induction; format: cell-based, mouse; details: L-NMMA 1 mM or 1400W 0.2 mM
# Protocol: In vitro CD4^+CD25^+Foxp3^+Tregs induction. CD4^+CD25^− T-lymphocytes (1×10^6/well), collected by CD4^+CD25^+ regulatory T-cell Isolation kit (Miltenyi Biotec), were pre-stimulated with plate bounded anti CD3E antibody (5 μg/ml) and soluble anti CD28 antibody (2 μg/ml) for 3 days. These activated T-lymphocytes were loaded on 0.2×10^6 of BMMSC or tBMMSC cultures with recombinant human TFGβ1 (2 μg/ml) (R&D Systems) and recombinant mouse IL2 (2 μg/ml) (R&D Systems). After 3 days, cells in suspension were collected and stained with anti CD4-PerCP, anti CD8a-FITC, anti CD25-APC antibodies (each 1 μg) for 45 min on ice under dark condition. And then cells were stained with anti Foxp3-PE antibody (1 μg) using Foxp3 staining buffer kit (eBioscience) for cell fixation and permeabilization. The cells were analyzed on FACS^Calibur (BD Bioscience).
# telomerase [3] = assay: Telomerase activity, TeloTAGGG Telomerase PCR ELISA kit, mouse BMMSC cultures; format: cell-based
# Protocol: as §2
# Measurement of telomerase activity. The Telomerase activity was measured using TeloTAGGG Telomerase PCR ELISA kit (Roche).
# active β-catenin = assay: Western blot of active beta-catenin in BMMSCs; format: cell-based, mouse
# Protocol: as §1, §2
# telomerase [4] = assay: Telomerase activity in human BMMSCs, Telo TAGGG Telomerase PCR ELISA kit; format: cell-based; details: aspirin in culture medium at 2.5 μg/ml or 50 μg/ml for 1 week
# [5] = test system: CD73, Sca-1, Oct4, SSEA4, CD34, CD45; assay: Flow cytometric analysis of mesenchymal stem cell surface molecules; format: cell-based, mouse; details: aspirin treatment
# Protocol: Flow cytometric analysis of mesenchymal stem cell surface molecules. BMMSCs or pBMMSCs (0.2×10^6) were incubated with 1 µg of PE conjugated antibodies or isotype-matched control IgGs (Southern Biotech) at 4° C. for 45 min. Samples were analyzed by FACS^Calibur flow cytometer (BD Bioscience). For dual color analysis, the cells were treated with PE conjugated and FITC conjugated antibodies or isotype-matched control IgGs (each 1 […]g). The cells were analyzed on FACS^Calibur (BD Bioscience).
# [6] = test system: telomerase reverse transcriptase (TERT); assay: Western blot of TERT expression; format: cell-based, mouse; details: aspirin treatment, one week
# Protocol: as §1
# [7] = L-NMMA 1 mM or 1400W 0.2 mM, 3 days
# [8] = BMMSCs treated with aspirin (TAT) prior to co-culture
compound,measurement,setting,value
CC(=N)NCc1cccc(CN)c1 [1400W],iNOS expression,iNOS,inhibited
same,NO production in BMMSCs,NO production in BMMSCs; [7],inhibit NO production
same,tBMMSC / BMMSC effect on cell viability of activated SP cells,activated SP cells [1],"significantly block tBMMSC, but not regular BMMSC, induced cell viability"
same,"inhibition of early apoptotic SP cells, tBMMSC group compared to regular BMMSC group",activated SP cells [2]; 1400W 0.2 mM,significantly greater inhibition
same,number of early and late apoptotic SP cells in tBMMSC and regular BMMSC groups,activated SP cells [2],significantly reduced
same,BMMSC- and tBMMSC-induced up-regulation of Tregs,CD4^+CD25^+Foxp3^+ Tregs,inhibit
Cc1cnc(-c2cnc(NCCNc3ccc(C#N)cn3)nc2-c2ccc(Cl)cc2Cl)[nH]1 [Chiron 99021],Telomerase activity in BMMSCs,"telomerase [3]; Chiron treatment, 7 days",elevated telomerase activity
same,NO production in BMMSCs,"NO production in BMMSCs; Chiron 1 and 10 μM, 1 week",up-regulated NO production in BMMSCs in a dose-dependent manner
same,active beta-catenin in BMMSCs,"active β-catenin; Chiron 99021, 7 days",elevation of active beta-catenin in a dose-dependent manner
"CNC(=N)NCCC[C@H](N)C(=O)O [L-NMMA, NG-monomethyl-L-arginine]",iNOS expression,iNOS,inhibited
same,NO production in BMMSCs,NO production in BMMSCs; [7],inhibit NO production
same,tBMMSC / BMMSC effect on cell viability of activated SP cells,activated SP cells [1],"significantly block tBMMSC, but not regular BMMSC, induced cell viability"
same,number of early and late apoptotic SP cells in tBMMSC and regular BMMSC groups,activated SP cells [2],significantly reduced
same,BMMSC- and tBMMSC-induced up-regulation of Tregs,CD4^+CD25^+Foxp3^+ Tregs,inhibit
CC(=O)Oc1ccccc1C(=O)O [aspirin],Telomerase activity in BMMSCs,telomerase [3]; regular BMMSCs cultured with aspirin (50 μg/ml) for one week,significantly elevated
same,NO production in BMMSCs,NO production in BMMSCs; regular BMMSCs cultured with aspirin for one week,significantly elevated
same,BMMSC-induced reduction of activated SP cell viability,activated SP cells [1]; [8],promote BMMSC-induced reduction of activated SP cell viability
same,Telomerase activity in human BMMSCs,telomerase [4],significantly increased level of telomerase activity
same,CD34 expression in BMMSCs,[5],elevates CD34 expression
same,telomerase reverse transcriptase (TERT) expression in BMMSCs,[6],significantly elevated
same,DKK1-induced down-regulation of activated beta-catenin,active β-catenin; aspirin (TAT) treatment,partially block
same,BMMSC-induced early and late apoptosis of activated SP cells,activated SP cells [2]; [8],elevation of early and late apoptosis
"DKK1: Wnt inhibitor, Dickkopf 1 (R&D Systems)",aspirin (TAT)-induced telomerase activity in BMMSCs,"telomerase [3]; DKK1 10 ng/ml, DKK-TAT",capable of blocking
same,aspirin-induced NO production in BMMSCs,"NO production in BMMSCs; DKK1 10 ng/ml added prior to aspirin (TAT) treatment, three days",significantly block
same,activated β-catenin level in BMMSCs,active β-catenin; DKK1 10 ng/ml,reducing activated β-catenin level
